Columns and labels:
non-fungal NAHA activity = assay: NAHA activity assay, non-fungal sources overall; assay type: biochemical
Procedure: (§1) In order to determine NAHA activity in different samples, the technology in WO 98/033934 was employed: A sample containing a dried or freeze dried organism is added to a buffer solution containing 4-Methylumbelliferyl N-acetyl-β-D-glucosaminide in a concentration of 20 μM. The reaction-time is varied depending on the ambient temperature and according to a reaction-time/temperature data sheet previously developed for fungal NAHA activity at various temperatures, and is 30 minutes at 23° C. The resulting fluorescence formed during the reaction time is monitored in a calibrated fluorometer.
(§2) Experiments were conducted where varying concentrations of AgNO3 was added to an analysis substrate. Furthermore, the experiments where performed on dried or freeze dried materials where both intact and fragmented cells are to be expected to be present.
(§3) Experiments analogous to those in example 1 were carried out, but instead of using non-specific inhibitors, the effect of different concentrations of DNJNAc on the NAHA activity in various biomass containing samples was investigated.

fungal NAHA activity = assay: NAHA activity assay, fungal sources overall; assay type: biochemical, fungi
Procedure: as §1, §2, §3
The experiments were performed with whole cell/organism cultures rather than purified enzyme, which is normally used in experiments on specific inhibition. It is plausible, though, that the surprising non-specific inhibition effect observed for Ag^+ and Hg^+ could be due to the inhibitors being delayed in physically contacting the NAHA enzyme in the fungi when compared to other types of biomass.

[1] = test system: NAHA activity from Grass pollen; assay: NAHA activity assay, grass pollen; assay type: biochemical; details: for NAHA activity, control without Ag+ = 100%: Grass pollen, 30 min
Procedure: as §1, §2, §3

[2] = test system: NAHA activity from Graham-flour; assay: NAHA activity assay (4-methylumbelliferyl N-acetyl-β-D-glucosaminide, fluorescence), Graham-flour; assay type: biochemical; details: Graham-flour, 30 min
Procedure: as §1, §2, §3

[3] = test system: NAHA activity from Lepidoglyphus destructor (Storage mite); assay: NAHA activity assay, storage mite; assay type: biochemical; details: for NAHA activity, control without Ag+ = 100%: Lepidoglyphus destructor (Storage mite), 30 min
Procedure: as §1, §2, §3

[4] = test system: NAHA activity from Human skin cells; assay: NAHA activity assay, human skin cells; assay type: biochemical; details: 30 min
Procedure: as §1, §2, §3

[5] = test system: NAHA activity from Birch pollen; assay: NAHA activity assay, birch pollen; assay type: biochemical; details: Birch pollen, 30 min
Procedure: as §1, §2, §3

[6] = test system: NAHA activity from Mucor hiemalis; assay: NAHA activity assay, Mucor hiemalis; assay type: biochemical
Procedure: as §1, §2, §3

[7] = test system: NAHA activity from Cladosporium sphaerospermum; assay: NAHA activity assay, Cladosporium sphaerospermum; assay type: biochemical; details: Cladosporium sphaerospermum
Procedure: as §1, §2, §3

[8] = test system: NAHA activity from Aureobasidium pullulans; assay: NAHA activity assay, Aureobasidium pullulans; assay type: biochemical
Procedure: as §1, §2, §3

[9] = test system: NAHA activity from Mugworth pollen; assay: NAHA activity assay, mugworth pollen; assay type: biochemical; details: 30 min
Procedure: as §1, §2, §3

[10] = test system: NAHA activity from Cat dander; assay: NAHA activity assay, cat dander; assay type: biochemical; details: 30 min
Procedure: as §1, §2, §3

[11] = test system: NAHA activity in Cladosporium spp.; assay: NAHA activity pilot experiment, Cladosporium spp.; assay type: biochemical; details: 10 μM
Procedure: as §1

[12] = test system: NAHA activity from Penicillium crysogenum; assay: NAHA activity assay, Penicillium crysogenum; assay type: biochemical; details: Penicillium crysogenum
Procedure: as §1, §2, §3

[13] = test system: NAHA activity from Aspergillus fumigatus freeze dried; assay: NAHA activity assay, Aspergillus fumigatus freeze dried; assay type: biochemical; details: Aspergillus fumigatus freeze dried
Procedure: as §1, §2, §3

[14] = test system: NAHA activity from Acremonium spp.; assay: NAHA activity assay, Acremonium spp.; assay type: biochemical; details: Acremonium spp.
Procedure: as §1, §2, §3

[15] = test system: NAHA activity in Alternaria spp.; assay: NAHA activity pilot experiment, Alternaria spp.; assay type: biochemical; details: 10 μM
Procedure: as §1

[16] = test system: NAHA activity from Ambrosia psilostachya (Rag weed pollen); assay: NAHA activity assay, rag weed pollen; assay type: biochemical; details: 30 min
Procedure: as §1, §2, §3

[17] = test system: NAHA activity from Fusarium culmorum; assay: NAHA activity assay, Fusarium culmorum; assay type: biochemical
Procedure: as §1, §2, §3

[18] = test system: NAHA activity from Aspergillus fumigatus fresh from cultivation; assay: NAHA activity assay, Aspergillus fumigatus fresh from cultivation; assay type: biochemical
Procedure: as §1, §2

[19] = test system: NAHA activity from Stachybotrys chartarum; assay: NAHA activity assay, Stachybotrys chartarum; assay type: biochemical
Procedure: as §1, §2, §3

[20] = test system: NAHA activity from Dermatophagoides pteronyssinus (Dust mite); assay: NAHA activity assay, dust mite; assay type: biochemical; details: Dermatophagoides pteronyssinus (Dust mite), 30 min
Procedure: as §1, §2, §3

[21] = test system: NAHA activity from all sources; assay: NAHA activity assay, all sources; assay type: biochemical; details: 500 μM
Procedure: as §1

Compound: [Hg+] [Hg^+]
- inhibition of non-fungal NAHA activity (non-fungal NAHA activity; 10 μM): high inhibition
- inhibition of fungal NAHA activity (fungal NAHA activity; 10 μM): less inhibition (but more than Ag^+)

Compound: O=[N+]([O-])[O-].[Ag+] [Ag+, AgNO3]
- NAHA activity, control without Ag+ = 100% ([1]; Ag+ 10 μM): 41%
- NAHA activity, control without Ag+ = 100% ([1]; Ag+ 25 μM): 22%
- NAHA activity, control without Ag+ = 100% ([1]; Ag+ 100 μM): 6%
- NAHA activity, control without Ag+ = 100% ([1]; Ag+ 400 μM): 8%
- inhibition of NAHA activity ([1]; pilot experiment, 10 μM, grass pollen): almost total inhibition
- NAHA activity, control without Ag+ = 100% ([2]; Ag+ 10 μM): 35%
- NAHA activity, control without Ag+ = 100% ([2]; Ag+ 25 μM): 33%
- NAHA activity, control without Ag+ = 100% ([2]; Ag+ 100 μM): 25%
- NAHA activity, control without Ag+ = 100% ([2]; Ag+ 400 μM): 19%
- NAHA activity, control without Ag+ = 100% ([3]; Ag+ 10 μM): 3%
- NAHA activity, control without Ag+ = 100% ([3]; Ag+ 25 μM): 2%
- NAHA activity, control without Ag+ = 100% ([3]; Ag+ 100 μM): 1%
- NAHA activity, control without Ag+ = 100% ([3]; Ag+ 400 μM): 0%
- inhibition of NAHA activity ([3]; pilot experiment, 10 μM, mite Lepidoglyphus): almost total inhibition
- NAHA activity, control without Ag+ = 100% ([4]; Ag+ 10 μM): 67%
- NAHA activity, control without Ag+ = 100% ([4]; Ag+ 25 μM): 65%
- NAHA activity, control without Ag+ = 100% ([4]; Ag+ 100 μM): 63%
- NAHA activity, control without Ag+ = 100% ([4]; Ag+ 400 μM): 46%
- NAHA activity, control without Ag+ = 100% ([5]; Ag+ 10 μM): 91%
- NAHA activity, control without Ag+ = 100% ([5]; Ag+ 25 μM): 74%
- NAHA activity, control without Ag+ = 100% ([5]; Ag+ 100 μM): 18%
- NAHA activity, control without Ag+ = 100% ([5]; Ag+ 400 μM): 11%
- reduction of the non-fungal NAHA activity, on average (non-fungal NAHA activity; 100 μM in the assay substrate): 82%
- NAHA activity retained, average of non-fungal sources, of the control (non-fungal NAHA activity; 400 μM): 13%
- NAHA activity, 0 μM Ag+ = 100% ([6]; Ag+ 10 μM): 88%
- NAHA activity, 0 μM Ag+ = 100% ([6]; Ag+ 25 μM): 63%
- NAHA activity, 0 μM Ag+ = 100% ([6]; Ag+ 100 μM): 114%
- NAHA activity, 0 μM Ag+ = 100% ([6]; Ag+ 400 μM): 57%
- NAHA activity, 0 μM Ag+ = 100% ([7]; Ag+ 10 μM): 212%
- NAHA activity, 0 μM Ag+ = 100% ([7]; Ag+ 25 μM): 154%
- NAHA activity, 0 μM Ag+ = 100% ([7]; Ag+ 100 μM): 137%
- NAHA activity, 0 μM Ag+ = 100% ([7]; Ag+ 400 μM): 167%
- NAHA activity, 0 μM Ag+ = 100% ([8]; Ag+ 10 μM): 89%
- NAHA activity, 0 μM Ag+ = 100% ([8]; Ag+ 25 μM): 91%
- NAHA activity, 0 μM Ag+ = 100% ([8]; Ag+ 100 μM): 96%
- NAHA activity, 0 μM Ag+ = 100% ([8]; Ag+ 400 μM): 76%
- NAHA activity, control without Ag+ = 100% ([9]; Ag+ 10 μM): 46%
- NAHA activity, control without Ag+ = 100% ([9]; Ag+ 25 μM): 23%
- NAHA activity, control without Ag+ = 100% ([9]; Ag+ 100 μM): 9%
- NAHA activity, control without Ag+ = 100% ([9]; Ag+ 400 μM): 8%
- NAHA activity, control without Ag+ = 100% ([10]; Ag+ 10 μM): 96%
- NAHA activity, control without Ag+ = 100% ([10]; Ag+ 25 μM): 69%
- NAHA activity, control without Ag+ = 100% ([10]; Ag+ 100 μM): 6%
- NAHA activity, control without Ag+ = 100% ([10]; Ag+ 400 μM): 3%
- effect on the NAHA activity [11]: no significant effect
- NAHA activity, 0 μM Ag+ = 100% ([12]; Ag+ 10 μM): 98%
- NAHA activity, 0 μM Ag+ = 100% ([12]; Ag+ 25 μM): 106%
- NAHA activity, 0 μM Ag+ = 100% ([12]; Ag+ 100 μM): 87%
- NAHA activity, 0 μM Ag+ = 100% ([12]; Ag+ 400 μM): 65%
- NAHA activity, 0 μM Ag+ = 100% ([13]; Ag+ 10 μM): 104%
- NAHA activity, 0 μM Ag+ = 100% ([13]; Ag+ 25 μM): 108%
- NAHA activity, 0 μM Ag+ = 100% ([13]; Ag+ 100 μM): 98%
- NAHA activity, 0 μM Ag+ = 100% ([13]; Ag+ 400 μM): 91%
- NAHA activity, 0 μM Ag+ = 100% ([14]; Ag+ 10 μM): 175%
- NAHA activity, 0 μM Ag+ = 100% ([14]; Ag+ 25 μM): 143%
- NAHA activity, 0 μM Ag+ = 100% ([14]; Ag+ 100 μM): 159%
- NAHA activity, 0 μM Ag+ = 100% ([14]; Ag+ 400 μM): 132%
- effect on the NAHA activity ([14]; pilot experiment, 10 μM): no significant effect
- effect on the NAHA activity [15]: no significant effect
- NAHA activity, control without Ag+ = 100% ([16]; Ag+ 10 μM): 69%
- NAHA activity, control without Ag+ = 100% ([16]; Ag+ 25 μM): 55%
- NAHA activity, control without Ag+ = 100% ([16]; Ag+ 100 μM): 19%
- NAHA activity, control without Ag+ = 100% ([16]; Ag+ 400 μM): 17%
- NAHA activity, 0 μM Ag+ = 100% ([17]; Ag+ 10 μM): 107%
- NAHA activity, 0 μM Ag+ = 100% ([17]; Ag+ 25 μM): 107%
- NAHA activity, 0 μM Ag+ = 100% ([17]; Ag+ 100 μM): 110%
- NAHA activity, 0 μM Ag+ = 100% ([17]; Ag+ 400 μM): 102%
- reduction of the fungal NAHA activity (fungal NAHA activity; 100 μM in the assay substrate): zero to very low reduction
- fungal NAHA activity retained (fungal NAHA activity; 400 μM): a high percentage
- inhibition of the fungal NAHA activity (fungal NAHA activity; inhibitor added to the fungal culture prior to the enzyme assay): complete inhibition
- NAHA activity, 0 μM Ag+ = 100% ([18]; Ag+ 10 μM): 91%
- NAHA activity, 0 μM Ag+ = 100% ([18]; Ag+ 25 μM): 103%
- NAHA activity, 0 μM Ag+ = 100% ([18]; Ag+ 100 μM): 95%
- NAHA activity, 0 μM Ag+ = 100% ([18]; Ag+ 400 μM): 87%
- NAHA activity, 0 μM Ag+ = 100% ([19]; Ag+ 10 μM): 97%
- NAHA activity, 0 μM Ag+ = 100% ([19]; Ag+ 25 μM): 91%
- NAHA activity, 0 μM Ag+ = 100% ([19]; Ag+ 100 μM): 83%
- NAHA activity, 0 μM Ag+ = 100% ([19]; Ag+ 400 μM): 93%
- NAHA activity, control without Ag+ = 100% ([20]; Ag+ 10 μM): 80%
- NAHA activity, control without Ag+ = 100% ([20]; Ag+ 25 μM): 57%
- NAHA activity, control without Ag+ = 100% ([20]; Ag+ 100 μM): 13%
- NAHA activity, control without Ag+ = 100% ([20]; Ag+ 400 μM): 6%

Compound: [Cu+2] [Cu^2+]
- inhibiting effect on NAHA activity from all sources [21]: did not exhibit any or exhibited only very slight inhibiting effect

From patent publication US20210115494A1, “Improved method for measurement of microbial biomass” (Mycometer A/S, priority 2018, published 2021)
